Measurements as given in US8168779B2, “Anhydrous crystalline β-maltose, its preparation and uses” (priority 2006, dated 2012).

Assays:
[1] = mercury filling method; for Intrusion volume: initial pressure 15 kPa; for Median pore diameter / Mode pore diameter: control values originate from space between crystal particles, not pores
[2] = Deionized water-solidifying test (base for solidifying moisture-containing compositions); format: physicochemical; conditions: 25° C.; for (Appearance) / Condition: after 20 hours from the dissolution; for Time of solidification completed / Time of solidification started: monitored for 2 hours
Source text: After completing the dissolution, each test solution was further stirred for four minutes and then the stirring was stopped. Successively, each test solution was left to stand and a solidification of the test solution by the crystallization of hydrous crystalline maltose was monitored macroscopically for two hours. In the cases of the solidified samples, the time of starting the crystallization and that of completing the solidification were checked. (However, the test solution dissolving 18.8 g of crystal was stopped stirring at three minutes after the dissolution because the crystallization of hydrous crystalline maltose was started immediately.) After monitoring macroscopically for two hours, each vessel containing any one of the sample solutions was closed and further left to stand for 18 hours. Then, the condition (appearance) of the test samples after 20 hours from the dissolution was monitored macroscopically and evaluated by the following three phases: (1) clear solution; (2) clouded solution; and (3) solidified. The samples prepared by using 10.0 g, 11.5 g, 13.3 g, or 18.8 g of the anhydrous crystalline α-maltose used in Example 2, as a substitute of the test samples, were treated by the same procedure as controls. The test was carried out in a room where a temperature was kept at 25° C. The results of each sample after 2 and 20 hours are shown in Table 5 and FIG. 13, and Table 6 and FIG. 14, respectively.

[3] = Hygroscopicity test (moisture content under controlled relative humidity); format: physicochemical; conditions: 27° C.
Procedure: Moisture contents of the samples at respective periods were measured based on the change of weight from the start of the test. The moisture contents of the samples at the start of the test were measured by Karl Fischer's method.

[4] = Specific surface area by nitrogen adsorption isotherms (BET); format: physicochemical; conditions: BET method, listed as anhydrous crystalline β-maltose of Control 3
Procedure: About 3 g of the anhydrous crystalline β-maltose, obtained in Example 1, was dried in the apparatus under a reduced pressure at about 40° C. for about 15 hours as a pretreatment, and then used for the measurement of specific surface area by the nitrogen adsorption isotherms. The result was analyzed by conventional BET (Brunnauer, Emmet, and Teller) method.

[5] = 8.2 g dissolved in 10 g deionized water (45.0%)
[6] = 8.2 g dissolved in 10 g deionized water (calc. conc. 45.0%)
[7] = 10.0 g dissolved in 10 g deionized water (50.0%)
[8] = 10.0 g dissolved in 10 g deionized water (calc. conc. 50.0%)
[9] = 11.5 g dissolved in 10 g deionized water (53.5%)
[10] = 11.5 g dissolved in 10 g deionized water (calc. conc. 53.5%)
[11] = 13.3 g dissolved in 10 g deionized water (calc. conc. 57.0%)
[12] = 18.8 g dissolved in 10 g deionized water (calc. conc. 65.0%)

OC[C@H]1O[C@H](O[C@H]2[C@H](O)[C@@H](O)[C@H](O)O[C@@H]2CO)[C@H](O)[C@@H](O)[C@@H]1O [Anhydrous crystalline β-maltose (Control 3)]
Intrusion volume [1]: (No pore)
Median pore diameter [1]: 14.70 μm
Mode pore diameter [1]: 25.70 μm

OC[C@H]1O[C@H](O[C@H]2[C@H](O)[C@@H](O)[C@H](O)O[C@@H]2CO)[C@H](O)[C@@H](O)[C@@H]1O [Anhydrous crystalline β-maltose converted by the ethanol tre]
Intrusion volume [1]: 1.05 mL/g
Median pore diameter [1]: 1.26 μm
Mode pore diameter [1]: 1.44 μm
(Appearance) [2, 5]: (Clear solution)
Condition [2, 5]: Not solidified
Time of solidification completed [2, 6]: Not solidified
Time of solidification started [2, 6]: Not solidified
(Appearance) [2, 7]: (Clear solution)
Condition [2, 7]: Not solidified
Time of solidification completed [2, 8]: Not solidified
Time of solidification started [2, 8]: Not solidified
(Appearance) [2, 9]: (Clouded solution)
Condition [2, 9]: Not solidified
Time of solidification completed [2, 10]: Not solidified
Time of solidification started [2, 10]: Not solidified
Condition ([2]; 13.3 g dissolved in 10 g deionized water (57.0%)): Solidified
Time of solidification completed [2, 11]: 8.0 min
Time of solidification started [2, 11]: 6.0 min
Condition ([2]; 18.8 g dissolved in 10 g deionized water (65.0%)): Solidified
Time of solidification completed [2, 12]: 3.5 min
Time of solidification started [2, 12]: 3.0 min

OC[C@H]1O[C@H](O[C@H]2[C@H](O)[C@@H](O)[C@H](O)O[C@@H]2CO)[C@H](O)[C@@H](O)[C@@H]1O [Anhydrous crystalline β-maltose]
Moisture content of samples ([3]; RH 47% (lithium nitrate), 0 hour (start, Karl Fischer), listed as AC β-Mal (Control 3)): 0.24 %, w/w
Moisture content of samples ([3]; RH 47% (lithium nitrate), 2 hours, listed as AC β-Mal (Control 3)): 0.32 %, w/w
Moisture content of samples ([3]; RH 47% (lithium nitrate), 4 hours, listed as AC β-Mal (Control 3)): 0.47 %, w/w
Moisture content of samples ([3]; RH 47% (lithium nitrate), 24 hours, listed as AC β-Mal (Control 3)): 0.54 %, w/w
Moisture content of samples ([3]; RH 47% (lithium nitrate), 96 hours, listed as AC β-Mal (Control 3)): 0.61 %, w/w
Moisture content of samples ([3]; RH 47% (lithium nitrate), 192 hours, listed as AC β-Mal (Control 3)): 0.47 %, w/w
Moisture content of samples ([3]; RH 58% (sodium bromide), 0 hour (start, Karl Fischer), listed as AC β-Mal (Control 3)): 0.24 %, w/w
Moisture content of samples ([3]; RH 58% (sodium bromide), 2 hours, listed as AC β-Mal (Control 3)): 4.68 %, w/w
Moisture content of samples ([3]; RH 58% (sodium bromide), 4 hours, listed as AC β-Mal (Control 3)): 6.92 %, w/w
Moisture content of samples ([3]; RH 58% (sodium bromide), 6 hours, listed as AC β-Mal (Control 3)): 6.71 %, w/w
Moisture content of samples ([3]; RH 58% (sodium bromide), 8 hours, listed as AC β-Mal (Control 3)): 6.28 %, w/w
Moisture content of samples ([3]; RH 58% (sodium bromide), 24 hours, listed as AC β-Mal (Control 3)): 5.63 %, w/w
Moisture content of samples ([3]; RH 58% (sodium bromide), 96 hours, listed as AC β-Mal (Control 3)): 5.48 %, w/w
Moisture content of samples ([3]; RH 58% (sodium bromide), 192 hours, listed as AC β-Mal (Control 3)): 5.42 %, w/w
Moisture content of samples ([3]; RH 75% (sodium chloride), 0 hour (start, Karl Fischer), listed as AC β-Mal (Control 3)): 0.24 %, w/w
Moisture content of samples ([3]; RH 75% (sodium chloride), 2 hours, listed as AC β-Mal (Control 3)): 6.86 %, w/w
Moisture content of samples ([3]; RH 75% (sodium chloride), 4 hours, listed as AC β-Mal (Control 3)): 6.76 %, w/w
Moisture content of samples ([3]; RH 75% (sodium chloride), 6 hours, listed as AC β-Mal (Control 3)): 6.47 %, w/w
Moisture content of samples ([3]; RH 75% (sodium chloride), 8 hours, listed as AC β-Mal (Control 3)): 6.34 %, w/w
Moisture content of samples ([3]; RH 75% (sodium chloride), 24 hours, listed as AC β-Mal (Control 3)): 6.16 %, w/w
Moisture content of samples ([3]; RH 75% (sodium chloride), 96 hours, listed as AC β-Mal (Control 3)): 6.01 %, w/w
Moisture content of samples ([3]; RH 75% (sodium chloride), 192 hours, listed as AC β-Mal (Control 3)): 5.93 %, w/w
Moisture content of samples ([3]; RH 90% (barium chloride), 0 hour (start, Karl Fischer), listed as AC β-Mal (Control 3)): 0.24 %, w/w
Moisture content of samples ([3]; RH 90% (barium chloride), 2 hours, listed as AC β-Mal (Control 3)): 7.28 %, w/w
Moisture content of samples ([3]; RH 90% (barium chloride), 4 hours, listed as AC β-Mal (Control 3)): 7.66 %, w/w
Moisture content of samples ([3]; RH 90% (barium chloride), 6 hours, listed as AC β-Mal (Control 3)): 7.45 %, w/w
Moisture content of samples ([3]; RH 90% (barium chloride), 8 hours, listed as AC β-Mal (Control 3)): 7.45 %, w/w
Moisture content of samples ([3]; RH 90% (barium chloride), 24 hours, listed as AC β-Mal (Control 3)): 8.46 %, w/w
Moisture content of samples ([3]; RH 90% (barium chloride), 96 hours, listed as AC β-Mal (Control 3)): 10.20 %, w/w
Moisture content of samples ([3]; RH 90% (barium chloride), 192 hours, listed as AC β-Mal (Control 3)): 9.12 %, w/w
Specific surface area [4]: 0.82 m^2/g

OCC1OC(OC2C(CO)OC(O)C(O)C2O)C(O)C(O)C1O (stereo not drawn) [HC β-Mal (Control 1), Hydrous crystalline β-maltose]
Moisture content of samples ([3]; RH 47% (lithium nitrate), 0 hour (start, Karl Fischer)): 5.24 %, w/w
Moisture content of samples ([3]; RH 47% (lithium nitrate), 2 hours): 5.23 %, w/w
Moisture content of samples ([3]; RH 47% (lithium nitrate), 4 hours): 5.23 %, w/w
Moisture content of samples ([3]; RH 47% (lithium nitrate), 24 hours): 5.23 %, w/w
Moisture content of samples ([3]; RH 47% (lithium nitrate), 96 hours): 5.26 %, w/w
Moisture content of samples ([3]; RH 47% (lithium nitrate), 192 hours): 5.23 %, w/w
Moisture content of samples ([3]; RH 58% (sodium bromide), 0 hour (start, Karl Fischer)): 5.24 %, w/w
Moisture content of samples ([3]; RH 58% (sodium bromide), 2 hours): 5.22 %, w/w
Moisture content of samples ([3]; RH 58% (sodium bromide), 4 hours): 5.25 %, w/w
Moisture content of samples ([3]; RH 58% (sodium bromide), 6 hours): 5.26 %, w/w
Moisture content of samples ([3]; RH 58% (sodium bromide), 8 hours): 5.25 %, w/w
Moisture content of samples ([3]; RH 58% (sodium bromide), 24 hours): 5.25 %, w/w
Moisture content of samples ([3]; RH 58% (sodium bromide), 96 hours): 5.28 %, w/w
Moisture content of samples ([3]; RH 58% (sodium bromide), 192 hours): 5.26 %, w/w
Moisture content of samples ([3]; RH 75% (sodium chloride), 0 hour (start, Karl Fischer)): 5.24 %, w/w
Moisture content of samples ([3]; RH 75% (sodium chloride), 2 hours): 5.21 %, w/w
Moisture content of samples ([3]; RH 75% (sodium chloride), 4 hours): 5.25 %, w/w
Moisture content of samples ([3]; RH 75% (sodium chloride), 6 hours): 5.25 %, w/w
Moisture content of samples ([3]; RH 75% (sodium chloride), 8 hours): 5.25 %, w/w
Moisture content of samples ([3]; RH 75% (sodium chloride), 24 hours): 5.25 %, w/w
Moisture content of samples ([3]; RH 75% (sodium chloride), 96 hours): 5.29 %, w/w
Moisture content of samples ([3]; RH 75% (sodium chloride), 192 hours): 5.23 %, w/w
Moisture content of samples ([3]; RH 90% (barium chloride), 0 hour (start, Karl Fischer)): 5.24 %, w/w
Moisture content of samples ([3]; RH 90% (barium chloride), 2 hours): 5.26 %, w/w
Moisture content of samples ([3]; RH 90% (barium chloride), 4 hours): 5.27 %, w/w
Moisture content of samples ([3]; RH 90% (barium chloride), 6 hours): 5.26 %, w/w
Moisture content of samples ([3]; RH 90% (barium chloride), 8 hours): 5.26 %, w/w
Moisture content of samples ([3]; RH 90% (barium chloride), 24 hours): 5.24 %, w/w
Moisture content of samples ([3]; RH 90% (barium chloride), 96 hours): 5.61 %, w/w
Moisture content of samples ([3]; RH 90% (barium chloride), 192 hours): 5.36 %, w/w
